From patent US20160038411A1, “PULSATILE GASTRIC RETENTIVE DOSAGE FORMS” (Depomed, Inc., priority 2007, published 2016)
Like-named read-outs stand apart in the source and are kept apart here. Values belong to the compound of their own block, whether it stands above or below them.

Tests used:
nocturnal heartburn = details: cited from earlier work
[1] = Four-way crossover pharmacokinetic study of omeprazole (limited colonic absorption); type: in vivo; details: human, plasma, 20 mg; for AUC: mean±SD
Text: Nine healthy subjects were entered into the study with an intention to complete treatment of at least six subjects. […] A period of at least four days for washout was allowed between dosing.

pH of the stomach = details: cited from earlier work
[2] = Two-period crossover study in GERD patients: plasma omeprazole PK; type: in vivo, human; details: for AUC: human, plasma, oral, read-out: median AUC (25-75%)
Procedure: (§1) Sixteen patients with a history of GERD, all of whom experienced recurrent nighttime reflux for at least three months while taking proton pump inhibitors, were enrolled. […] Ambulatory 24-hour gastric pH was recorded and blood samples taken for PK analysis on days 6-7. Following a seven day washout the patients were crossed over to the alternate treatment. NAB was defined as an intra-gastric pH<4 for more than 1 hour between 22:00 hour and 06:00 hour (10:00 PM and 6:00 AM).

basal acid output = details: 20 mg dose, healthy volunteers and patients, cited from earlier work
[3] = test system: NAB (intra-gastric pH<4 for more than 1 hour between 22:00 and 06:00); test: Two-period crossover study in GERD patients: ambulatory 24-hour gastric pH, NAB; type: in vivo, human
Procedure: as §1, with “enrolled. The study was an open label crossover study in which 14 of the 16 patients participated in each of two treatment arms separated by a washout period.” for “enrolled.”

[4] = pH 11 phosphate buffer; cited from earlier work

SMILES: COc1ccc2nc([S@@+]([O-])Cc3ncc(C)c(OC)c3C)[nH]c2c1 [esomeprazole]
GERD patients with relief of nocturnal heartburn (nocturnal heartburn): 50%

AUC ([1]; iv, (iv) 20 mg omeprazole delivered to the ascending colon via ENTERION capsule): 242 ± 323 ng·h/mL
Tmax ([1]; iv, (iv) Colonic): 1.8 h
bioavailability ([1]; iv, (iv) Colonic, compared to fasted state, read-out: Relative bioavailability): 22 ± 12%
bioavailability ([1]; oral, 20 mg fed, one of the subjects removed from the analysis, read-out: relative bioavailability in the fed state compared to fasting): 96 ± 7%
Tmax ([1]; oral, (i) SCR): 4.9 h
bioavailability ([1]; oral, (i) SCR, fed state, compared to fasted state, read-out: Relative bioavailability): 61 ± 15%
AUC ([1]; oral, (i) SCR: 20 mg omeprazole divided into 17 doses at 30 minute intervals (8 hr), fed state, n = 7): 568 ± 727 ng·h/mL
AUC ([1]; oral, (ii) 20 mg omeprazole in the fed state, n = 7): 849 ± 999 ng·h/mL
Tmax ([1]; oral, (ii) Fed): 3.7 h
bioavailability ([1]; oral, (ii) Fed, compared to fasted state, read-out: Relative bioavailability): 90 ± 16%
AUC ([1]; oral, (iii) 20 mg omeprazole in the fasted state, n = 7): 969 ± 1090 ng·h/mL
bioavailability ([1]; oral, (iii) Fasted (reference arm), read-out: Relative bioavailability): 100%
bioavailability ([1]; other: ENTERION capsule activated in the terminal ileum, one subject, ENTERION capsule activated in the terminal ileum, read-out: relative bioavailability compared to fasted state): 58%
patients who did not start absorbing omeprazole until 4-5 hours after the initial dose ([2]; 20 mg at dinner + 20 mg 4 hours later, of the 14 patients (FIG. 7B)): 36%
blood levels of omeprazole between 2:00 and 3:00 AM ([2]; 40 mg single dose arm, the three patients who experienced NAB): undetectable levels
time until start of omeprazole absorption after the initial 20 mg dose ([2]; five of the 14 patients of the two dose arm (FIG. 7B)): 4 to 5 h
AUC ([2]; 20 mg at dinner + 20 mg four hours later for six days, all patients, n = 14): 1860 ng·h/mL
AUC ([2]; 20 mg at dinner + 20 mg four hours later, patients with NAB (n = 5)): 1670 ng·h/mL
AUC ([2]; 20 mg at dinner + 20 mg four hours later, patients without NAB (n = 9)): 1910 ng·h/mL
SMILES: COc1ccc2[nH]c([S+]([O-])Cc3ncc(C)c(OC)c3C)nc2c1 (stereo not drawn) [omeprazole, 5-methoxy-2-[[(4-methoxy-3,5-dimethyl-2-pyridinyl)methyl]sulfinyl]-1H-benzimidazole]
nighttime pH control of the stomach, time with pH>4 (pH of the stomach; 40 mg before breakfast): 24 % of the time
nighttime pH control of the stomach, time with pH>4 (pH of the stomach; 40 mg before dinner): 69 % of the time
nighttime pH control of the stomach, time with pH>4 (pH of the stomach; twice-daily (BID) dosing, 20 mg before breakfast and dinner): 80 % of the time
decrease in basal acid output (basal acid output; 2-6 hours after dosing): 78%
decrease in basal acid output (basal acid output; 24 hours after dosing): 50%-80%
patients who experienced inhibition of NAB ([3]; 20 mg at dinner + 20 mg 4 hours later, the 9 patients with two-dose absorption profile (FIG. 7A)): 100%
occurrence of NAB ([3]; 40 mg single dose 30 minutes before dinner for six days, 14 patients): Three of the patients experienced NAB
occurrence of NAB ([3]; two dose arm, nine patients who achieved blood levels from both doses): none experienced NAB
occurrence of NAB ([3]; two dose arm, the five patients with delayed absorption): All five of those patients experienced NAB
stability at pH 11 [4]: stable at pH 11
